Measurements as given in the supplement of paper PMC11451515.

Test system: P12-Ichikawa
Experiment: cell viability relative to DMSO control; higher = less cytotoxic
Conditions: 48 h
Outline: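 Viability is expressed as a percentage of DMSO wells within each plate, and cell-free wells serve as background. Seeding densities in the 1536-well plates (5 μl) were 500 cells/well for NOMO1 or SEM leukemia cells and 1000 cells/well for P12-Ichikawa. Each line was adapted for at least four passages in each medium. Library compounds in DMSO were pin-dosed at 47 μM to 0.79 nM (11 points, threefold), and CellTiter-Glo One luminescence was read after 48 h at 37°C.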

[1] = HPLM + 10% dialyzed FBS, 0.000781 µM
[2] = HPLM + 10% dialyzed FBS, 0.00234 µM
[3] = HPLM + 10% dialyzed FBS, 0.00702 µM
[4] = HPLM + 10% dialyzed FBS, 0.0211 µM
[5] = HPLM + 10% dialyzed FBS, 0.0632 µM
[6] = HPLM + 10% dialyzed FBS, 0.19 µM
[7] = HPLM + 10% dialyzed FBS, 0.569 µM
[8] = HPLM + 10% dialyzed FBS, 1.71 µM
[9] = HPLM + 10% dialyzed FBS, 5.12 µM
[10] = HPLM + 10% dialyzed FBS, 15.4 µM
[11] = HPLM + 10% dialyzed FBS, 46.1 µM
[12] = RPMI 5 mM glucose + 10% FBS, 0.000781 µM
[13] = RPMI 5 mM glucose + 10% FBS, 0.00234 µM
[14] = RPMI 5 mM glucose + 10% FBS, 0.00702 µM
[15] = RPMI 5 mM glucose + 10% FBS, 0.0211 µM
[16] = RPMI 5 mM glucose + 10% FBS, 0.0632 µM
[17] = RPMI 5 mM glucose + 10% FBS, 0.19 µM
[18] = RPMI 5 mM glucose + 10% FBS, 0.569 µM
[19] = RPMI 5 mM glucose + 10% FBS, 1.71 µM
[20] = RPMI 5 mM glucose + 10% FBS, 5.12 µM
[21] = RPMI 5 mM glucose + 10% FBS, 15.4 µM
[22] = RPMI 5 mM glucose + 10% FBS, 46.1 µM
[23] = RPMI 5 mM glucose + 10% dialyzed FBS, 0.000781 µM
[24] = RPMI 5 mM glucose + 10% dialyzed FBS, 0.00234 µM
[25] = RPMI 5 mM glucose + 10% dialyzed FBS, 0.00702 µM
[26] = RPMI 5 mM glucose + 10% dialyzed FBS, 0.0211 µM
[27] = RPMI 5 mM glucose + 10% dialyzed FBS, 0.0632 µM
[28] = RPMI 5 mM glucose + 10% dialyzed FBS, 0.19 µM
[29] = RPMI 5 mM glucose + 10% dialyzed FBS, 0.569 µM
[30] = RPMI 5 mM glucose + 10% dialyzed FBS, 1.71 µM
[31] = RPMI 5 mM glucose + 10% dialyzed FBS, 5.12 µM
[32] = RPMI 5 mM glucose + 10% dialyzed FBS, 15.4 µM
[33] = RPMI 5 mM glucose + 10% dialyzed FBS, 46.1 µM

| Compound | cell viability [1] [%] | cell viability [2] [%] | cell viability [3] [%] | cell viability [4] [%] | cell viability [5] [%] | cell viability [6] [%] | cell viability [7] [%] | cell viability [8] [%] | cell viability [9] [%] | cell viability [10] [%] | cell viability [11] [%] | cell viability [12] [%] | cell viability [13] [%] | cell viability [14] [%] | cell viability [15] [%] | cell viability [16] [%] | cell viability [17] [%] | cell viability [18] [%] | cell viability [19] [%] | cell viability [20] [%] | cell viability [21] [%] | cell viability [22] [%] | cell viability [23] [%] | cell viability [24] [%] | cell viability [25] [%] | cell viability [26] [%] | cell viability [27] [%] | cell viability [28] [%] | cell viability [29] [%] | cell viability [30] [%] | cell viability [31] [%] | cell viability [32] [%] | cell viability [33] [%] |
| --- | --- | --- | --- | --- | --- | --- | --- | --- | --- | --- | --- | --- | --- | --- | --- | --- | --- | --- | --- | --- | --- | --- | --- | --- | --- | --- | --- | --- | --- | --- | --- | --- | --- |
| CC(C)N(C[C@H]1O[C@@H](n2cnc3c(N)ncnc32)[C@H](O)[C@@H]1O)[C@H]1C[C@@H](CCc2nc3cc(C(C)(C)C)ccc3[nH]2)C1 | 87.7 | 93.6 | 101 | 98.2 | 99.2 | 103 | 103 | 12.9 | 11.5 | 11.6 | 2.23 | 90 | 96.5 | 103 | 99.2 | 95.4 | 105 | 102 | 103 | 108 | 92.7 | 1.91 | 96.2 | 100 | 103 | 104 | 96.5 | 97.6 | 113 | 99.2 | 31.4 | 31 | 1.74 |
| Cc1c(-c2cccc3c(CCCOc4cccc5ccccc45)c(C(=O)O)n(Cc4cccnc4)c23)c(COc2ccc(N3CCN([S+](=O)([O-])N(C)C)CC3)cc2)nn1C | 96 | 94.3 | 87.4 | 93.2 | 97.4 | 91.6 | 88.5 | 85.8 | 91 | 80.3 | 71.6 | 92.1 | 87.7 | 94.1 | 85.6 | 87.2 | 92.7 | 84.2 | 88 | 91.2 | 87 | 74 | 91.7 | 93.4 | 91.4 | 95.3 | 93 | 88.2 | 82.8 | 90.8 | 81.3 | 82.4 | 67 |
| Cc1cc(O)c2c(c1)C(=O)c1cccc(O)c1C2=O | 112 | 119 | 119 | 127 | 121 | 137 | 128 | 133 | 122 | 113 | 87.1 |  |  |  |  |  |  |  |  |  |  |  |  |  |  |  |  |  |  |  |  |  |  |
| O=C(CCc1ccc(O)cc1)c1c(O)cc(O)cc1O | 94.5 | 106 | 104 | 99.5 | 103 | 111 | 110 | 116 | 112 | 103 | 110 | 89.5 | 91 | 100 | 103 | 90.2 | 101 | 106 | 104 | 105 | 107 | 91.1 | 81.6 | 92 | 93 | 96.7 | 100 | 98.7 | 103 | 94.3 | 102 | 90.4 | 99.4 |
| Cc1cc(OCCC[S+](C)(=O)[O-])cc(C)c1-c1cccc(COc2ccc3c(c2)OC[C@H]3CC(=O)O)c1 | 100 | 104 | 98.1 | 108 | 97 | 94.8 | 97.4 | 93.6 | 91.6 | 94.2 | 68.6 | 105 | 106 | 110 | 103 | 101 | 100 | 98.1 | 84.2 | 84.9 | 86.8 | 49.3 | 93.1 | 96.2 | 102 | 98.5 | 96.1 | 97.7 | 91.1 | 84.3 | 84.7 | 82.4 | 46.1 |
| CC(C)(F)C[C@H](N[C@@H](c1ccc(-c2ccc([S+](C)(=O)[O-])cc2)cc1)C(F)(F)F)C(=O)NC1(C#N)CC1 | 106 | 120 | 111 | 112 | 115 | 117 | 124 | 115 | 112 | 110 | 98.7 | 99.9 | 114 | 111 | 121 | 120 | 111 | 112 | 109 | 113 | 106 | 98.7 | 93.8 | 115 | 106 | 106 | 121 | 111 | 111 | 111 | 109 | 101 | 99.5 |
| COc1cc(Nc2c(C#N)cnc3cc(OCCCN4CCN(C)CC4)c(OC)cc23)c(Cl)cc1Cl | 112 | 112 | 110 | 110 | 117 | 120 | 120 | 97.6 | 42.4 | 4.36 | 4.46 | 103 | 123 | 112 | 115 | 121 | 122 | 122 | 109 | 54.2 | 6.74 | 5.61 | 111 | 110 | 126 | 128 | 124 | 127 | 129 | 105 | 64.5 | 7.05 | 5.93 |
| OC1=CC2=C(C=C1)C(=O)\C(=C(O2)\C3=CC(=C(O)C=C3)O)O | 102 | 105 | 98.2 | 91.1 | 94 | 87.7 | 89.5 | 92.4 | 86 | 82.4 | 44 | 94.1 | 94.7 | 97.5 | 87 | 91.2 | 96.5 | 88.8 | 85.5 | 86 | 88.1 | 32.2 | 86.5 | 91.1 | 88 | 87.2 | 97.6 | 88.1 | 85 | 84.8 | 90.4 | 79.7 | 32.5 |
